The text below walks through data of US5705190A, “Controlled release formulation for poorly soluble basic drugs” (Abbott Laboratories, priority 1995, dated 1998).

For data set [1] the following is noted: cited from earlier work.
For data set [2] the following is noted: in vivo.

Read-outs that look alike come from different tables or passages of the source.

With `CC[C@H]1OC(=O)[C@H](C)[C@@H](O[C@H]2C[C@@](C)(OC)[C@@H](O)[C@H](C)O2)[C@H](C)[C@@H](O[C@@H]2O[C@H](C)C[C@H](N(C)C)[C@H]2O)[C@](C)(OC)C[C@@H](C)C(=O)[C@H](C)[C@@H](O)[C@]1(C)O` [clarithromycin], the “water solubility (1 part of drug in the number of parts of water)” value in data set [1] (1 part drug in x parts water, a higher number is a lower solubility) was ~1,000 parts of water. In data set [1] (pH 1.2), the “solubility in the stomach” value is given as “very soluble”. In addition, in data set [1] (pH 5.0), the “solubility in the upper region of the small intestine” value is given as “fairly soluble”. The “solubility in the lower intestine” value in data set [1] (pH 6 to 8) is “solubility decreases”.
`CC[C@H]1OC(=O)[C@H](C)[C@@H](O[C@H]2C[C@@](C)(OC)[C@@H](O)[C@H](C)O2)[C@H](C)[C@@H](O[C@@H]2O[C@H](C)C[C@H](N(C)C)[C@H]2O)[C@](C)(O)C[C@@H](C)C(=O)[C@H](C)[C@@H](O)[C@]1(C)O` [erythromycin]: the “reproducibly bioavailable controlled release formulations” value in data set [2] is listed as “not possible”. In addition, the “water solubility (1 part of drug in the number of parts of water)” value in data set [1] (water) is on record as 1,000 parts of water.
For the compound `CC1Cc2ccccc2N1NC(=O)c1ccc(Cl)c(S(N)(=O)=O)c1` (stereo not drawn) [indapamide], the “water solubility (1 part of drug in the number of parts of water)” value in data set [1] (water) is recorded as “more than 10,000 parts of water”.
For `CO[C@@H]1[C@@H](O[C@@H]2O[C@H](C)[C@@H](O[C@H]3C[C@@](C)(O)[C@@H](OC(=O)CC(C)C)[C@H](C)O3)[C@H](N(C)C)[C@H]2O)[C@@H](CC=O)C[C@@H](C)[C@@H](O)/C=C/C=C/C[C@@H](C)OC(=O)C[C@H]1OC(C)=O` [josamycin], the “water solubility (1 part of drug in the number of parts of water)” value in data set [1] (water) is recorded as 1,000-10,000 parts of water.
For `Cc1ncc([N+](=O)[O-])n1CCO` [metronidazole], in data set [1] (water), the “water solubility (1 part of drug in the number of parts of water)” value was 100-1,000 parts of water.
In the case of `CCC(=O)O[C@@H]1CC(=O)O[C@H](C)C/C=C/C=C/[C@H](O)[C@H](C)C[C@H](CC=O)[C@H](O[C@@H]2O[C@H](C)[C@@H](O[C@H]3C[C@@](C)(O)[C@@H](OC(=O)CC)[C@H](C)O3)[C@H](N(C)C)[C@H]2O)[C@H]1OC` [midecamycin], in data set [1] (water), the “water solubility in words” value was “very slightly soluble in water”.
As for `CC[C@H]1OC(=O)C[C@@H](O)[C@H](C)[C@@H](O[C@@H]2O[C@H](C)[C@@H](O[C@H]3C[C@@](C)(O)[C@@H](O)[C@H](C)O3)[C@H](N(C)C)[C@H]2O)[C@@H](CC=O)C[C@@H](C)C(=O)/C=C/C(C)=C/[C@@H]1CO[C@@H]1O[C@H](C)[C@@H](O)[C@@H](OC)[C@H]1OC` [tylosin], in data set [1] (water), the “water solubility (1 part of drug in the number of parts of water)” value is recorded as 100-1,000 parts of water.
As to kitasamycin, in data set [1] (water), the “water solubility (1 part of drug in the number of parts of water)” value was 1,000-10,000 parts of water.
